The values that follow come from US8975232B2, “Macrocyclic kinase inhibitors and uses thereof” (President and Fellows of Harvard College, priority 2010, dated 2015).

Where two headings read alike, the source gives them in different places.

One assay has as its target Pim1 (Homo sapiens, UniProt P11309). Description: Z'-LYTE kinase assay (Invitrogen SelectScreen). The format is biochemical. The note with it: PIM1; 5 μM. The text has this:
(§1) Macrocycles A10-B1-C11-D5 and A10-B8-C11-D5 were enriched 2- to 6-fold upon selection for binding Akt3, MAPKAPK2, Pim1, and VEGFR2 (FIG. 6). These two macrocycles are structurally similar, sharing nitrophenylalanine (A10) and cyclohexylstatine (C11) building blocks as well as the same lysine scaffold (D5), and differ only at the B building block with either furylalanine (B1) or cyclohexylalanine (B8) (FIG. 6). For assay purposes, the macrocycles were synthesized with C-terminal PEG-diamine linkers to aid solubility, and then tested for the ability to inhibit Akt3, MAPKAPK2, Pim1 and VEGFR2.
(§2) Src IC50 determinations and single-point inhibition measurements were performed using Invitrogen's Z′-LYTE Tyr 02 assay kit according to the manufacturer's protocols. All kinase assays were performed at ATP concentrations near KM,ATP values, except where noted otherwise. Active human Src kinase was obtained from Millipore. For kinome profiling and IC50 determinations against non-Src kinases, compounds were submitted to Invitrogen's SelectScreen Kinase Profiling Service.

Another assay has as its target MAPKAPK2 (MK2) (Homo sapiens, UniProt P49137). Briefly: Z'-LYTE kinase assay (Invitrogen SelectScreen). In kind it is biochemical. The note with it: MAPKAPK2; 5 μM.
Description: as §1, §2

In the next assay the target is VEGFR2 (KDR) (Homo sapiens, UniProt P35968). Briefly: Z'-LYTE kinase assay (Invitrogen SelectScreen). In kind it is biochemical. The note with it: KDR (VEGFR2); 5 μM.
Description: as §1, §2

In a further assay the target is Akt3 (Homo sapiens, UniProt Q9Y243). Description: Z'-LYTE kinase assay (Invitrogen SelectScreen). In kind it is biochemical. The note with it: AKT3 (PKB gamma); 5 μM.
Description: as §1, §2

The target in a further assay is T1, Src kinase domain (Gallus gallus, UniProt P00523).
T1 construct: chicken c-Src (residues 251-533 and residues 83-533); made in house
Description: Fluorescence anisotropy binding assay. More on the design: species or system chicken. The settings on record: fluorescein-labeled macrocycle, read-out: dissociation constant (KD). How it is done:
The change in fluorescence anisotropy of fluorescein-labeled MC1, MC4 and MC9 at 518 nm upon excitation at 492 nm was monitored with a HORIBA Jobin Yvon FluoroMax-4 (Edison, N.J.) spectrofluorimeter. Kinase was titrated to 0.5 μM of the fluorescently labeled macrocycle in 100 mM Tris pH 8.0, 10 mM MgCl2 at 25° C. After equilibration, the increase in the fluorescence anisotropy of the fluorescently labeled ligand was recorded and fitted against a quadratic binding equation in Kaleidagraph (Synergy Software, Reading Pa.) to yield the dissociation constant KD.
To clarify the inhibitory mechanism of the compounds further, the binding affinity of fluorescently labeled MC1, MC4, and MC9 to Src kinase domain was determined in a fluorescence anisotropy assay (FIG. 21).

The target of another assay is T2, Abl (Homo sapiens, UniProt P00519).
T2 construct: human c-Abl (residues 229-512); made in house
T2 sequence (P00519 229-512): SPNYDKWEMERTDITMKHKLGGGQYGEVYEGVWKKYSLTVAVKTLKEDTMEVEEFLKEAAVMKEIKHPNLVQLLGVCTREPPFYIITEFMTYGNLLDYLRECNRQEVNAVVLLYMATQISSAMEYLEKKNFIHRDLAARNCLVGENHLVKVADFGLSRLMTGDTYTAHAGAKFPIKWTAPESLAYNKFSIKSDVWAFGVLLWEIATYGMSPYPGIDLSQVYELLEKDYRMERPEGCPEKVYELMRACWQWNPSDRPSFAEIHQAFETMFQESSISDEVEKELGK
Description: Continuous spectrophotometric kinase activity assay. In kind it is biochemical.

Chain of VEGFR2 (KDR) (P35968 20-1356): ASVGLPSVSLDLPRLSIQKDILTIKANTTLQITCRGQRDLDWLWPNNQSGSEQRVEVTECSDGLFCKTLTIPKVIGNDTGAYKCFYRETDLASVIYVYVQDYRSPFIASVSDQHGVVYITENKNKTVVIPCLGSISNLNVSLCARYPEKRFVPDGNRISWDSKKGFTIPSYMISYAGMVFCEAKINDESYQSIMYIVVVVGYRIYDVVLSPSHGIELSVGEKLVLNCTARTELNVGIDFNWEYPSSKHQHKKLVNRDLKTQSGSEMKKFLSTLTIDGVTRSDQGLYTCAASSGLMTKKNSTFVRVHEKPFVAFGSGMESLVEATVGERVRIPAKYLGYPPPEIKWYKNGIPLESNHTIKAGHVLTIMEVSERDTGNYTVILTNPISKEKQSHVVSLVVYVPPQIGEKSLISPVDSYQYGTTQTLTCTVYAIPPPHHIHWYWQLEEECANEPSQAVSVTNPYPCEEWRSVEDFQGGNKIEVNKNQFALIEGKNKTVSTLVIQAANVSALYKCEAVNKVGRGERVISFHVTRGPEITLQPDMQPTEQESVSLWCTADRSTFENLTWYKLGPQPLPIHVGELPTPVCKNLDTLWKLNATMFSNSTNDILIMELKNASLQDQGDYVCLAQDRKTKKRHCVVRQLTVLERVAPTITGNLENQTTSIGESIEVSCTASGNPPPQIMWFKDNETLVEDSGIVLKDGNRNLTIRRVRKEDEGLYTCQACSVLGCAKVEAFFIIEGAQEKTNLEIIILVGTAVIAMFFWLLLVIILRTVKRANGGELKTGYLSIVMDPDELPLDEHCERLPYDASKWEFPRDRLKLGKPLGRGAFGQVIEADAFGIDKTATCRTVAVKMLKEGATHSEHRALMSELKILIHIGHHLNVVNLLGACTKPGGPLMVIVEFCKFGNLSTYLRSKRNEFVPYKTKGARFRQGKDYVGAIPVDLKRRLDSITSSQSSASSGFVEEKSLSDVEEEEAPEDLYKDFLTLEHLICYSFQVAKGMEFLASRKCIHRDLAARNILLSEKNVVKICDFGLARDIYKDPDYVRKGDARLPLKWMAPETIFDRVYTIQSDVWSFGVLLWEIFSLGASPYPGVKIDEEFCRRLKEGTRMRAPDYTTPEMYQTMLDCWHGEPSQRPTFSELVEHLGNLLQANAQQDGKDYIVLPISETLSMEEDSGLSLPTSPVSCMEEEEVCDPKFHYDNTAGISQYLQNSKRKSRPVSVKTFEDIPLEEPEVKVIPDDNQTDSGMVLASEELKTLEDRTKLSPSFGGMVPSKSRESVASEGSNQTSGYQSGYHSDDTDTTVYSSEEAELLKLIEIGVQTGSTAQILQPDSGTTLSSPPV
Chain of Pim1 (P11309 whole entry): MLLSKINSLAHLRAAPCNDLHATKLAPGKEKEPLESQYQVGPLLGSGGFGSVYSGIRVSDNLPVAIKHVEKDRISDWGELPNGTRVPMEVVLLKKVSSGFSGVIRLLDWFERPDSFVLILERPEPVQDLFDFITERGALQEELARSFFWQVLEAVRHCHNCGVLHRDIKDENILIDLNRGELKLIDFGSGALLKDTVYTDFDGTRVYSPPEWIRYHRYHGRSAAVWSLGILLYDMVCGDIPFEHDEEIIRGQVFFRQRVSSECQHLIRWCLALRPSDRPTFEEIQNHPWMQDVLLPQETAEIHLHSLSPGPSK
Chain of Akt3 (Q9Y243 whole entry): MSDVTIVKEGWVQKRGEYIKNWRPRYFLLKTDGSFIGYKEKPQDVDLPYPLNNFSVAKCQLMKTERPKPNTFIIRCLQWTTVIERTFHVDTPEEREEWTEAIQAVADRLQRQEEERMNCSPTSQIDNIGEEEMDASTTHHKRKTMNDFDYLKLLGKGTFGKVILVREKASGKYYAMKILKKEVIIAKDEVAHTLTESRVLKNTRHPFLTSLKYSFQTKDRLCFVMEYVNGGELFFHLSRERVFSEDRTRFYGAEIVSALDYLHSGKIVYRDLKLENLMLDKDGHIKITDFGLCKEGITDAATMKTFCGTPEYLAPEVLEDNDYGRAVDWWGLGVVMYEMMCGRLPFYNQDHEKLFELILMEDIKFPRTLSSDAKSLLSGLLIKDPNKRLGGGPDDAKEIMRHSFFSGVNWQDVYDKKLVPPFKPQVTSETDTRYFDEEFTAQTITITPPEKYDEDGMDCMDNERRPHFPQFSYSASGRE
Chain of MAPKAPK2 (MK2) (P49137 whole entry): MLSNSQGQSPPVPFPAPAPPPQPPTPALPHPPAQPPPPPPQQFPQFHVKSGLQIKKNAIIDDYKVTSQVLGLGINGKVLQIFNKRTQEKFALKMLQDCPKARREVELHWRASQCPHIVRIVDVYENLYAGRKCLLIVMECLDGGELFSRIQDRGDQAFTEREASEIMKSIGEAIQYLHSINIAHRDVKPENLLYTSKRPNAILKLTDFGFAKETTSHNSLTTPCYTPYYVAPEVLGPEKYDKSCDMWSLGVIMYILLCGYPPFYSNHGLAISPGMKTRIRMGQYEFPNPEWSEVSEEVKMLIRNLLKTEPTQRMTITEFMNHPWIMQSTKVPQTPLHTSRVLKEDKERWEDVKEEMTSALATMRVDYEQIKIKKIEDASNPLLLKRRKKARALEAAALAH

What is called % inhibition is the relative decrease from the control value, in per cent. As a reminder, the Kd is the concentration at which binding is half-saturated. As usually defined, the IC50 is the concentration needed to halve the response being measured. As to `NC(=O)[C@@H]1CCCNC(=O)[C@H](Cc2ccc([N+](=O)[O-])cc2)NC(=O)[C@H](Cc2ccco2)NC(=O)[C@H](CC2CC2)NC(=O)/C=C/C(=O)N1` [trans-A10-B1-C5-D6], the “% inhibition” value at Pim1 is listed as −3%; at MAPKAPK2 (MK2) it was −3%; at VEGFR2 (KDR) it was 7%; at Akt3 it was 11%. For the same compound, the Kd came out at 1700 nM at Src kinase domain (250 μM AMP-PNP) and 300 nM on Src kinase domain (no competitor). In addition, the IC50 at Abl (5 μM ATP, 100 μM Src optimal peptide) was greater than 100 µM; against Abl (5 μM ATP, 300 μM Src optimal peptide), greater than 100 µM; against Abl (250 μM ATP, 300 μM Src optimal peptide) it was greater than 100 µM.
